Experiments:
[1] = target: T1, 5-hydroxytryptamine receptor 2A (Homo sapiens, UniProt P28223); type: functional, cell-based
[2] = target: T2, Alpha-1A adrenergic receptor (Homo sapiens, UniProt P35348); type: functional, cell-based
T2 sequence (P35348 whole entry): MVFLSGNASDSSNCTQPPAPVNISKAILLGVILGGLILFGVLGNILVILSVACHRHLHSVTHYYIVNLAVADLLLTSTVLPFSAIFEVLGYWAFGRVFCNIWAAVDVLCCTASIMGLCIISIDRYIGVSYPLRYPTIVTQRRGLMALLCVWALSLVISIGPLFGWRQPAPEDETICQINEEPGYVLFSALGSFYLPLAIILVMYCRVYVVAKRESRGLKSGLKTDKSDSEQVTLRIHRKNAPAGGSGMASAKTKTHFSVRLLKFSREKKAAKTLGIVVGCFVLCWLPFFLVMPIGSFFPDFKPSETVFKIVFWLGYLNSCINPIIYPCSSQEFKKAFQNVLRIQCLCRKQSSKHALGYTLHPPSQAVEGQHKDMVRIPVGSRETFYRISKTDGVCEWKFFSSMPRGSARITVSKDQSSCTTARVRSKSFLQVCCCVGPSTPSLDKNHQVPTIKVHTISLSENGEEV

[3] = target: T3, Endothelin-1 receptor (Homo sapiens, UniProt P25101)
T3 sequence (P25101 whole entry): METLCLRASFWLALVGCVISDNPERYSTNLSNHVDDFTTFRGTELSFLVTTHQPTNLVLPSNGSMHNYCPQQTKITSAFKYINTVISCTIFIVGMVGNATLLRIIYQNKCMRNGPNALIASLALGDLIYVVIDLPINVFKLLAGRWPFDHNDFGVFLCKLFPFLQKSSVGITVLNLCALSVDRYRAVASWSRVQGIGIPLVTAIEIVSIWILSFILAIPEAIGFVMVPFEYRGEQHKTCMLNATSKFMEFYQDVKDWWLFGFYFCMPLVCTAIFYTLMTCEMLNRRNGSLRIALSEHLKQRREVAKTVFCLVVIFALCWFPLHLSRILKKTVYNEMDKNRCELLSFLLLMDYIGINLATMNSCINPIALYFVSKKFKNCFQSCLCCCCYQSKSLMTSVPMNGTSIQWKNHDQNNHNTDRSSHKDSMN

[4] = target: T4, Thromboxane A2 receptor (Homo sapiens, UniProt P21731)
T4 sequence (P21731 whole entry): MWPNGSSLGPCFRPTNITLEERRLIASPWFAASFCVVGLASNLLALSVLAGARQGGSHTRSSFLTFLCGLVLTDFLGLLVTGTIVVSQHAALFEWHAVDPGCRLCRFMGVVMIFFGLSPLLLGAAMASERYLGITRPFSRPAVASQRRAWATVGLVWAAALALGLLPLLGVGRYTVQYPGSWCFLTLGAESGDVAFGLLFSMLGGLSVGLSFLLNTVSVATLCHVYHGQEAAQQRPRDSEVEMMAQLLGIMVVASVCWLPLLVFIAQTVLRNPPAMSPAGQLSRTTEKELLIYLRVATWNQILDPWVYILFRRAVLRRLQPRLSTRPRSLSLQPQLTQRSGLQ

[5] = target: T5, Alpha-2C adrenergic receptor (Homo sapiens, UniProt P18825); type: functional
T5 sequence (P18825 whole entry): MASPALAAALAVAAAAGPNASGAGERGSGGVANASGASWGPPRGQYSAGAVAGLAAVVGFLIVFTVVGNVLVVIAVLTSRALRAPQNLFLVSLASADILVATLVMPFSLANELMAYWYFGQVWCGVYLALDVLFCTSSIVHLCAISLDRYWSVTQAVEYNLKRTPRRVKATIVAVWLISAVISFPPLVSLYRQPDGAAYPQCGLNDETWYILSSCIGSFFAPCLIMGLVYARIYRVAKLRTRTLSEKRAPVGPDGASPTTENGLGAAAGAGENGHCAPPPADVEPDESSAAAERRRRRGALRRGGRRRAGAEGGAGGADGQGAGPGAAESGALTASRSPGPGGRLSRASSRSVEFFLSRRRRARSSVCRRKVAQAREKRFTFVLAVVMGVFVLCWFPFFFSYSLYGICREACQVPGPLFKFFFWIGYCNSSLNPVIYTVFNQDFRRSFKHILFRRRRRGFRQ

[6] = target: T6, Alpha-2B adrenergic receptor (Homo sapiens, UniProt P18089)
T6 sequence (P18089 whole entry): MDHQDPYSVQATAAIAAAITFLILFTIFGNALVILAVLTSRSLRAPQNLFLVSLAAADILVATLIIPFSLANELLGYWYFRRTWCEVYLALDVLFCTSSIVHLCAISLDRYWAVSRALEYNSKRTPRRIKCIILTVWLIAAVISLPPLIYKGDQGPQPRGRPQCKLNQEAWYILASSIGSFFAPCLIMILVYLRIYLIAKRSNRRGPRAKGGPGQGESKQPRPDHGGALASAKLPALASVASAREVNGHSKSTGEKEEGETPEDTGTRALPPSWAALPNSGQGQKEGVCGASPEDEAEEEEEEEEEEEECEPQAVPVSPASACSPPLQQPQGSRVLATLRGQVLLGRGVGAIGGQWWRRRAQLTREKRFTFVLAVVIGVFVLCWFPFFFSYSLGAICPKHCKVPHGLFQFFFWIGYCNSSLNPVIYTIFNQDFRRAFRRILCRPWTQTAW

[7] = target: 5-hydroxytryptamine receptor 2B (Homo sapiens, UniProt P41595); type: functional, cell-based
[8] = target: Beta-1 adrenergic receptor (Homo sapiens, UniProt P08588); type: functional
[9] = target: T1, 5-hydroxytryptamine receptor 2A; type: functional, cell-based; remark: listed apart in the source
[10] = target: T7, Alpha-2A adrenergic receptor (Homo sapiens, UniProt P08913); type: functional, cell-based
T7 sequence (P08913 whole entry): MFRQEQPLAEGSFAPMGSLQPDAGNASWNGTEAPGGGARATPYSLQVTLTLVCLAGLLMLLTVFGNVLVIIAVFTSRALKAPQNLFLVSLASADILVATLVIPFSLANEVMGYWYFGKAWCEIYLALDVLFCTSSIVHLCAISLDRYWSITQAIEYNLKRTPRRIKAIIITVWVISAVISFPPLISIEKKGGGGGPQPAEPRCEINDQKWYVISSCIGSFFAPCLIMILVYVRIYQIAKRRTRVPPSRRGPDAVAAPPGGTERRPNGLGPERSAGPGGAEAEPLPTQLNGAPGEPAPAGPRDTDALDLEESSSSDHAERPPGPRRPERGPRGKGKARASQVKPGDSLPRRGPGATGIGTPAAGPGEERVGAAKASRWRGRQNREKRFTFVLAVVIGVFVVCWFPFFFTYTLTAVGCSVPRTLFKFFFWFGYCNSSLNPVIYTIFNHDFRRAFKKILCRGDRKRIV
Note: assay procedure not described here.

T1 sequence (P28223 whole entry): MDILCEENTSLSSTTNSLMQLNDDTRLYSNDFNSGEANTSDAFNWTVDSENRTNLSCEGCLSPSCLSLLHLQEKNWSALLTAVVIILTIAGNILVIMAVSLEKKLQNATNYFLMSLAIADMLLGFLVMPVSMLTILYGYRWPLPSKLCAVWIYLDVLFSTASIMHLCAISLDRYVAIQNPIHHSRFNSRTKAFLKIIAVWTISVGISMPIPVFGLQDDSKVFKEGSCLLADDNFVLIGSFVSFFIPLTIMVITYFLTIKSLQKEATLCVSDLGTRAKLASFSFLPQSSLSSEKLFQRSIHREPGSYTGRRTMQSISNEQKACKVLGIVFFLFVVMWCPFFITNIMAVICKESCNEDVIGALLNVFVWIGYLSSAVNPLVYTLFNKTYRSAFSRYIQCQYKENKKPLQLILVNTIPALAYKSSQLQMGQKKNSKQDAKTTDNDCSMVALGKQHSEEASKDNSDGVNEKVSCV
Sequence of Beta-1 adrenergic receptor (P08588 whole entry): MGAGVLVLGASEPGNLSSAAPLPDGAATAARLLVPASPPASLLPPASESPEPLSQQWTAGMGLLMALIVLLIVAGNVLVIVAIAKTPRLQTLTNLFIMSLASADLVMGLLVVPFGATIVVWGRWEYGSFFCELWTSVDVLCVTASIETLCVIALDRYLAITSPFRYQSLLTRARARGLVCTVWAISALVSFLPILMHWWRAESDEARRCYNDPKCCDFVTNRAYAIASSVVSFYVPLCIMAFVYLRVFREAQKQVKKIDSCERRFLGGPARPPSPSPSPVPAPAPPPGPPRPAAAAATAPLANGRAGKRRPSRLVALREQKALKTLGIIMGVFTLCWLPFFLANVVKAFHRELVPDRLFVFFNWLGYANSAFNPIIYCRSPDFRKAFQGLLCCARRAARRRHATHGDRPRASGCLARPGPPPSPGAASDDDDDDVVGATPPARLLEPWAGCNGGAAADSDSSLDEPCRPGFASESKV
Sequence of 5-hydroxytryptamine receptor 2B (P41595 whole entry): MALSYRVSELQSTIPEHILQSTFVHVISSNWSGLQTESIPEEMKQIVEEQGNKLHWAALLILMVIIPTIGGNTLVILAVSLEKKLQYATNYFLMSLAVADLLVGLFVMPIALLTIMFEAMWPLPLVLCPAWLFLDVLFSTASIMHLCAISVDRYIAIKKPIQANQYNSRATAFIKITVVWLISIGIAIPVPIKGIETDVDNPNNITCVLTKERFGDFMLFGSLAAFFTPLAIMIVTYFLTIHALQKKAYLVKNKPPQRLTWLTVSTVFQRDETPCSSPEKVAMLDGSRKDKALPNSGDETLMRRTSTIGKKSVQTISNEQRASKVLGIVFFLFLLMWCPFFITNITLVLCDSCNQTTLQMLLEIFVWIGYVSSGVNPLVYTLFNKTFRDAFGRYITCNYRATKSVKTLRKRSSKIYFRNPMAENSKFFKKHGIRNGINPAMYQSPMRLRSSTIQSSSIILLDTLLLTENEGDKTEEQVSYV

SMILES	AC50 [1] [µM]	AC50 [2] [µM]	AC50 [3] [µM]	AC50 [4] [µM]	AC50 [5] [µM]	AC50 [6] [µM]	AC50 [7] [µM]	AC50 [8] [µM]	AC50 [9] [µM]	AC50 [10] [µM]
N#Cc1ccccc1-c1cc(-c2ccccn2)cn(-c2ccccc2)c1=O	> 30	> 30	> 30	> 30	> 30	> 30	> 30	> 30	> 30	> 30
N=C(N)NCCCCCCC(=O)NC(O)C(=O)NCCCCNCCCN (stereo not drawn)	> 30	> 30	> 30	> 30	> 30	> 30	> 30	> 30	> 30	> 30
O=C(CCCN1CCC(n2c(O)nc3ccccc32)CC1)c1ccc(F)cc1 [BENPERIDOL]	0.12	0.0706	> 30	> 30	1.9	0.85	6.59	8.5	> 30	> 30
CCN(CC)C(=O)C1CN2CCc3cc(OC)c(OC)cc3C2CC1OC(C)=O (stereo not drawn) [BENZQUINAMIDE]	1.57	> 30	> 30	> 10	1.7	1.03	0.32	> 30	> 30	> 30
CCC(=O)OCC(=O)[C@@]1(OC(=O)CC)[C@@H](C)C[C@H]2[C@@H]3CCC4=CC(=O)C=C[C@]4(C)[C@@]3(F)[C@@H](O)C[C@@]21C [BETAMETHASONE DIPROPIONATE]	> 30	> 30	> 30	> 30	> 30	> 30	> 30	> 30	> 30	> 30
CCOC(=O)NNc1ccc(N(CC)CC(C)O)nn1 (stereo not drawn) [CADRALAZINE]	> 30	> 30	> 30	> 30	> 30	> 30	> 30	> 30	> 30	> 30
CCCC(C)(COC(N)=O)COC(=O)NC(C)C (stereo not drawn) [CARISOPRODOL]	> 30	> 30	> 30	> 30	> 10	> 10	> 10	> 10	> 30	> 10
CCC(C)(Oc1ccc(C2(c3ccc(OC(C)(CC)C(=O)O)cc3)CCCCC2)cc1)C(=O)O (stereo not drawn) [CLINOFIBRATE]	> 30	> 30	> 30	> 30	> 30	> 30	> 30	> 30	> 30	> 30
CCCCC[C@H](O)/C=C/[C@H]1[C@H](O)CC(=O)[C@@H]1C/C=C\CCCC(=O)O [DINOPROSTONE]	> 30	> 30	> 30	3.5	> 30	> 30	> 30	> 30	> 30	> 30
CC(C)c1cc2c(cc1S(=O)(=O)O)[C@@]1(C)CCC[C@@](C)(C(=O)O)[C@@H]1CC2 [ECABET]	> 30	> 30	> 30	> 30	> 30	> 30	> 30	> 30	> 30	> 30
Cc1ccc2c(-c3ccccc3)nc(=O)n(C(C)C)c2c1 [PROQUAZONE]	> 30	> 30	> 30	11	> 30	> 30	–	> 30	> 30	> 30
CN1CCN(c2c(F)cc3c(=O)c(C(=O)O)cn4c3c2SCC4)CC1 [RUFLOXACIN]	> 30	> 30	> 30	> 30	> 30	9.8	–	> 30	> 30	> 30
